Some test systems named below: 786-0 renal; BT-549 breast; HCC-2998 colon; HL-60(TB) leukemia; HS 578T breast; IGROV1 ovarian; K-562 leukemia; MALME-3M melanoma; NCI-H226 lung; NCI-H23 lung; NCI/ADR-RES ovarian; OVCAR-8 ovarian; RPMI-8226 leukemia; SF-268 CNS; SF-295 CNS; SF-539 CNS; SK-OV-3 ovarian; U251 CNS; UO-31 renal; UACC-257 melanoma.
What all share (test): growth of human tumour cells (NCI), 48 h

The values below come from PubChem BioAssay (NCI).

Structures are written as SMILES.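 All cell lines were grown in 96-well plates and treated with compound for 48 hours. At the TGI there is no net growth.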 A value given as a limit tells only on which side of the number the result lay.

With `Nc1nc(Cl)cc(NCC2(CO)CCC2)n1`, the TGI with 786-0 renal, in the assay with BT-549 breast, with HCC-2998 colon, in the assay on HL-60(TB) leukemia, with HS 578T breast and in the assay on IGROV1 ovarian was greater than 100 µM throughout. Moreover, the TGI with K-562 leukemia, in the assay on MALME-3M melanoma, with NCI-H226 lung, with NCI-H23 lung, in the assay on NCI/ADR-RES ovarian and in the assay with OVCAR-8 ovarian was greater than 100 µM throughout. The TGI in the assay with RPMI-8226 leukemia, in the assay on SF-268 CNS, in the assay on SF-295 CNS, with SF-539 CNS, in the assay with SK-OV-3 ovarian and in the assay on U251 CNS was greater than 100 µM throughout. The TGI in the assay on UO-31 renal is greater than 100 µM.

For the compound `N#CC1=C(C#N)/C(=C(\C#N)C(C#N)C#N)N=C1N`, the TGI in the assay on 786-0 renal is greater than 100 µM; with BT-549 breast, greater than 78.7 µM; with HCC-2998 colon it was greater than 100 µM; in the assay with HL-60(TB) leukemia, 39.1 µM; in the assay with HS 578T breast it was greater than 100 µM; with IGROV1 ovarian, greater than 100 µM. Also, the TGI was greater than 100 µM in the assay on K-562 leukemia; 38.2 µM in the assay with MALME-3M melanoma; 97.3 µM in the assay with NCI-H226 lung; greater than 100 µM in the assay on NCI-H23 lung; greater than 100 µM in the assay with NCI/ADR-RES ovarian; greater than 100 µM in the assay with OVCAR-8 ovarian. The TGI in the assay on RPMI-8226 leukemia is greater than 81.3 µM; in the assay with SF-268 CNS it was greater than 100 µM; in the assay with SF-295 CNS, greater than 100 µM; in the assay on SF-539 CNS, 54.5 µM; in the assay on SK-OV-3 ovarian, greater than 100 µM; in the assay on U251 CNS, greater than 100 µM. Moreover, the TGI in the assay with UACC-257 melanoma was 51.7 µM; in the assay on UO-31 renal, greater than 100 µM.

Regarding `Cc1cc(S(=O)(=O)Nc2nc(N)nc(N3CCOCC3)n2)c(SCC(=O)O)cc1Cl`, the TGI with 786-0 renal, in the assay with BT-549 breast, with HCC-2998 colon, in the assay on HL-60(TB) leukemia, in the assay on HS 578T breast and with IGROV1 ovarian was greater than 10 µM in each case. For the same compound, the TGI in the assay with K-562 leukemia, in the assay with MALME-3M melanoma, in the assay with NCI-H226 lung, in the assay on NCI-H23 lung, with NCI/ADR-RES ovarian and with OVCAR-8 ovarian was greater than 10 µM throughout. For the same compound, the TGI in the assay on RPMI-8226 leukemia, in the assay with SF-268 CNS, with SF-295 CNS, in the assay with SF-539 CNS, in the assay on SK-OV-3 ovarian and with U251 CNS was greater than 10 µM each time. For the same compound, the TGI in the assay with UACC-257 melanoma and in the assay on UO-31 renal was greater than 10 µM in each case.

On to `CCCC(=O)N/S(=N/S(=O)(=O)c1ccc(Cl)cc1)C(Cl)(Cl)Cl` (centres undefined), for which the TGI with 786-0 renal, in the assay with BT-549 breast, in the assay on HCC-2998 colon, with HL-60(TB) leukemia, in the assay with HS 578T breast and with IGROV1 ovarian was greater than 100 µM in each case. For the same compound, the TGI with K-562 leukemia, in the assay with MALME-3M melanoma, with NCI-H226 lung, in the assay with NCI-H23 lung, in the assay on NCI/ADR-RES ovarian and with OVCAR-8 ovarian was greater than 100 µM in each case. Further, the TGI in the assay with SF-268 CNS, with SF-295 CNS, with SF-539 CNS, in the assay with SK-OV-3 ovarian, in the assay with U251 CNS and in the assay with UO-31 renal was greater than 100 µM in each case.

On to `COc1ccc(-c2c3c(n(C4OC(CO)C(O)C(O)C4O)c(=S)c2C#N)CC(C)(C)CC3=O)cc1` (centres undefined), for which the TGI with 786-0 renal, in the assay with BT-549 breast, in the assay on HCC-2998 colon, in the assay on HL-60(TB) leukemia, in the assay on HS 578T breast and with IGROV1 ovarian was greater than 100 µM in each case. Further, the TGI in the assay with K-562 leukemia, with MALME-3M melanoma, with NCI-H226 lung, in the assay with NCI-H23 lung, with NCI/ADR-RES ovarian and with OVCAR-8 ovarian was greater than 100 µM throughout. Also, the TGI with RPMI-8226 leukemia, with SF-268 CNS, with SF-295 CNS, in the assay on SF-539 CNS, in the assay with U251 CNS and with UACC-257 melanoma was greater than 100 µM in each case. This compound gave a TGI in the assay with UO-31 renal greater than 100 µM.

In the case of `C=CCNC(=O)/C(Cc1cc(Br)c(OC)c(Br)c1O)=N\O`, the TGI with 786-0 renal came to 7.28 µM; with BT-549 breast, 18.3 µM; in the assay on HCC-2998 colon, 14.2 µM; in the assay with HL-60(TB) leukemia, 5.43 µM; in the assay with HS 578T breast, 4.23 µM; with IGROV1 ovarian it was 47.8 µM. The TGI in the assay on K-562 leukemia was greater than 100 µM; with MALME-3M melanoma it was 17.3 µM; in the assay with NCI-H226 lung, 23.4 µM; in the assay on NCI-H23 lung, 18.1 µM; in the assay on NCI/ADR-RES ovarian, 11.4 µM; in the assay with OVCAR-8 ovarian it was 20.9 µM. Also, the TGI in the assay with RPMI-8226 leukemia is greater than 100 µM; in the assay with SF-268 CNS, 15.7 µM; with SF-295 CNS, 21.5 µM; in the assay on SF-539 CNS, 14.6 µM; in the assay with U251 CNS, 39.8 µM; in the assay on UACC-257 melanoma, 27.1 µM. The same compound came in with a TGI in the assay on UO-31 renal of 15.6 µM.

In the case of `COC(=O)/C(C#N)=C1\NC(=O)CC(c2ccccc2)C1C#N` (centres undefined), the TGI in the assay with 786-0 renal, in the assay with BT-549 breast, in the assay on HCC-2998 colon, in the assay with HL-60(TB) leukemia, with HS 578T breast and in the assay with IGROV1 ovarian was greater than 100 µM in each case. For the same compound, the TGI with K-562 leukemia, with MALME-3M melanoma, in the assay with NCI-H226 lung, in the assay on NCI/ADR-RES ovarian, with OVCAR-8 ovarian and in the assay with RPMI-8226 leukemia was greater than 100 µM in each case. Also, the TGI with SF-268 CNS, with SF-295 CNS, in the assay on SF-539 CNS, in the assay on SK-OV-3 ovarian, with UACC-257 melanoma and in the assay with UO-31 renal was greater than 100 µM in each case.

In the case of `CC1(C)[C@@H]2C[C@H]1C(Cc1ccc(C[C@H]3c4cc(-c5ccccn5)ncc4[C@H]4C[C@@H]3C4(C)C)cc1)c1cc(-c3ccccn3)ncc12` (some centres undefined), the TGI in the assay on 786-0 renal was 14.7 µM; in the assay with BT-549 breast, greater than 100 µM; with HCC-2998 colon it was 88.2 µM; in the assay on HL-60(TB) leukemia it was 2.28 µM; in the assay on HS 578T breast, greater than 100 µM; in the assay on IGROV1 ovarian it was greater than 100 µM. The TGI in the assay with K-562 leukemia is greater than 100 µM; in the assay on MALME-3M melanoma, 76.6 µM; with NCI-H23 lung, 37 µM; in the assay with NCI/ADR-RES ovarian, 22.2 µM; with OVCAR-8 ovarian it was 15.8 µM; in the assay on RPMI-8226 leukemia, 70 µM. For the same compound, the TGI is 28.6 µM with SF-268 CNS; greater than 100 µM in the assay on SF-295 CNS; 7.13 µM in the assay with SF-539 CNS; greater than 100 µM with SK-OV-3 ovarian; 19.7 µM in the assay on U251 CNS; greater than 100 µM in the assay with UACC-257 melanoma. In the assay on UO-31 renal, the TGI amounted to 4.91 µM.

Consider `CC(=O)OCC1OC(n2c3c(c(-c4ccc(Cl)cc4)c(C#N)c2=S)C(=O)CC(C)(C)C3)C(OC(C)=O)C(OC(C)=O)C1OC(C)=O` (centres undefined), for which the TGI in the assay with 786-0 renal is greater than 88.7 µM; in the assay with BT-549 breast, 12.8 µM; with HCC-2998 colon it was 27.9 µM; in the assay on HL-60(TB) leukemia it was greater than 61.1 µM; with HS 578T breast, 62.4 µM; in the assay with IGROV1 ovarian it was greater than 100 µM. For the same compound, the TGI is greater than 100 µM in the assay with K-562 leukemia; greater than 100 µM with MALME-3M melanoma; greater than 81 µM with NCI-H226 lung; greater than 100 µM in the assay on NCI-H23 lung; greater than 67.8 µM in the assay on NCI/ADR-RES ovarian; 51.8 µM in the assay with OVCAR-8 ovarian. Further, the TGI with RPMI-8226 leukemia was greater than 100 µM; with SF-268 CNS, 29 µM; in the assay with SF-295 CNS, greater than 100 µM; with SF-539 CNS, greater than 68.7 µM; with U251 CNS, 50.3 µM; with UACC-257 melanoma, 42.8 µM. The same compound showed a TGI with UO-31 renal greater than 78.5 µM.

For the compound `CN(C)c1ncnc2c1ncn2C1C=CC(COS(N)(=O)=O)C1` (centres undefined), the TGI with 786-0 renal, with BT-549 breast, with HCC-2998 colon, in the assay with HL-60(TB) leukemia, in the assay on HS 578T breast and in the assay with IGROV1 ovarian was greater than 100 µM throughout. The TGI in the assay with K-562 leukemia, with MALME-3M melanoma, in the assay on NCI-H23 lung, with NCI/ADR-RES ovarian, in the assay with OVCAR-8 ovarian and in the assay with RPMI-8226 leukemia was greater than 100 µM each time. The TGI in the assay on SF-268 CNS, in the assay on SF-295 CNS, in the assay with SF-539 CNS, in the assay on SK-OV-3 ovarian, in the assay with U251 CNS and in the assay with UACC-257 melanoma was greater than 100 µM in each case. For the same compound, in the assay on UO-31 renal, the TGI is greater than 100 µM.

Consider `CC(C)C[C@H](NC(=O)CCc1ccccc1)B(O)O`, for which the TGI is 57.5 µM in the assay with 786-0 renal; 57.6 µM in the assay with BT-549 breast; 27 µM in the assay with HCC-2998 colon; 8.8 µM in the assay on HL-60(TB) leukemia; 29.6 µM with HS 578T breast; greater than 100 µM in the assay on IGROV1 ovarian. The TGI is 62.7 µM with K-562 leukemia; 32.9 µM in the assay on MALME-3M melanoma; 4.8 µM with NCI-H226 lung; greater than 100 µM with NCI-H23 lung; 49.2 µM in the assay with NCI/ADR-RES ovarian; 46.2 µM in the assay with OVCAR-8 ovarian. For the same compound, the TGI in the assay with RPMI-8226 leukemia is 6.11 µM; with SF-268 CNS, 59.4 µM; in the assay on SF-295 CNS, 34.5 µM; with SF-539 CNS, 15.4 µM; with U251 CNS it was greater than 100 µM; with UACC-257 melanoma, 37.8 µM. The compound further yielded a TGI in the assay on UO-31 renal of 60.1 µM.
